According to patent US20210330611A1, “THERAPY FOR NEUROLOGICAL DISEASES/DISORDERS” (priority 2020, published 2021):
Where a name gives a salt, the structure may show the parent alone. Read-outs that look alike come from different tables or passages of the source.

Legend:
[1] = tested on: fibrin- and LPS-induced microglia activation; assay: cells; format: cell-based, rat
[2] = tested on: primary rat microglia; assay: Cell toxicity (dead cells, size <150 μm2) in LPS assay
[3] = tested on: LPS-induced microglia activation; assay: Image-based assay of LPS-induced microglia activation (HTS and dose response); format: cell-based, rat; settings: for inhibition at 10 µM: read-out: LPS % inhibition
[4] = tested on: fibrin-induced microglia activation; assay: Image-based assay of fibrin-induced microglia activation (HTS and dose response); format: cell-based, rat; settings: for inhibition at 10 µM: read-out: Fibrin % inhibition
[5] = tested on: primary rat microglia; assay: Cell toxicity (dead cells, size <150 μm2) in coated fibrin (cFib) assay;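 also: share of dead cells sized under 150 µm2 at 10 µM in fibrin-stimulated microglia HTS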
[6] = quadrant by fibrin and LPS inhibition in HTS of 1907 compounds
[7] = primary microglia HTS, LPS stimulation, decreased size (<150 μm^2) as marker of toxicity
[8] = primary microglia HTS, LPS stimulation, increased cell size (>800 μm^2) as marker of activation
[9] = primary microglia HTS, fibrin stimulation, increased cell size (>800 μm^2) as marker of activation
[10] = primary microglia HTS, fibrin stimulation, decreased size (<150 μm^2) as marker of toxicity
[11] = Rattus norvegicus, Microglia, 48 h, primary microglia HTS, LPS stimulation, increased cell size (>800 μm^2) as marker of activation
[12] = Rattus norvegicus, Microglia, primary microglia HTS, fibrin stimulation, increased cell size (>800 μm^2) as marker of activation
[13] = primary microglia HTS, LPS stimulation, toxicity = cell size <150 μm2
[14] = Rattus norvegicus, Microglia, 48 h, primary microglia HTS, LPS stimulation, activation = cell size >800 μm2
[15] = Rattus norvegicus, Microglia, primary microglia HTS, fibrin stimulation, activation = cell size >800 μm2
[16] = primary microglia HTS, fibrin stimulation, toxicity = cell size <150 μm2
[17] = primary HTS, 10 μM, LPS assay, dead cells size <150 μm2
[18] = Rattus norvegicus, Microglia, primary HTS, 10 μM, LPS-stimulated primary microglia
[19] = Rattus norvegicus, Microglia, primary HTS, 10 μM, fibrin-stimulated primary microglia
[20] = primary HTS, 10 μM, fibrin assay, dead cells size <150 μm2

## Cc1ccnc(NS(=O)(=O)c2ccc(N)cc2)n1 [Sulfamerazine]
[1]; HTS of 1907 compounds, quadrant by fibrin and LPS inhibition
  Quadrant (FIG. 5b): Q4
[2]; primary microglia HTS, 10 μM, LPS assay, cell size <150 μm^2 as marker of toxicity
  LPS % cell toxicity: 0%
[3]; Rattus norvegicus, Microglia, primary microglia HTS, 10 μM, LPS-stimulated, cell size >800 μm^2 as marker of activation
  inhibition at 10 µM: 12%
[4]; Rattus norvegicus, Microglia, primary microglia HTS, 10 μM, fibrin-stimulated, cell size >800 μm^2 as marker of activation
  inhibition at 10 µM: -2%
[5]; primary microglia HTS, 10 μM, fibrin assay, cell size <150 μm^2 as marker of toxicity
  Fibrin % cell toxicity: 1%

## CC1CCCC(C)N1 (stereo not shown) [Nanofin]
[1]; [6]
  Quadrant (FIG. 5b): Q4
[2]; [7]
  LPS % cell toxicity: 0%
[3]; [8]
  LPS % inhibition: 12%
[4]; [9]
  Fibrin % inhibition: 17%
[5]; [10]
  Fibrin % cell toxicity: 1%

## CCn1cc(C(=O)O)c(=O)c2cc(F)c(N3CCNCC3)nc21 [Enoxacin]
[1]; [6]
  Quadrant (FIG. 5b): Q2
[2]; [7]
  LPS % cell toxicity: 12%
[3]; [11]
  inhibition at 10 µM: 119%
[4]; [12]
  inhibition at 10 µM: 113%
[5]; [10]
  Fibrin % cell toxicity: 84%

## NS(=O)(=O)c1cc2c(cc1Cl)NCNS2(=O)=O [Hydrochlorothiazide]
[1]; [6]
  Quadrant (FIG. 5b): Q4
[2]; [13]
  LPS % cell toxicity: 0%
[3]; [14]
  inhibition at 10 µM: 21%
[4]; [15]
  inhibition at 10 µM: -29%
[5]; [16]
  Fibrin % cell toxicity: 0%

## O=C1C2CC3CC1CC(O)(C3)C2 [Idramantone]
[1]; [6]
  Quadrant (FIG. 5b): Q4
[2]; [13]
  LPS % cell toxicity: 0%
[3]; [14]
  inhibition at 10 µM: 8%
[4]; [15]
  inhibition at 10 µM: -7%
[5]; [16]
  Fibrin % cell toxicity: 1%

## C[C@H](CCC(=O)O)[C@H]1CC[C@H]2[C@@H]3[C@H](O)C[C@@H]4C[C@H](O)CC[C@]4(C)[C@H]3CC[C@]12C [Chenodiol]
[1]; primary HTS, 10 μM
  Quadrant (FIG. 5b): Q4
[2]; [17]
  LPS % cell toxicity: 0%
[3]; [18]
  inhibition at 10 µM: 4%
[4]; [19]
  inhibition at 10 µM: -32%
[5]; [20]
  Fibrin % cell toxicity: 0%

## CCOC(=O)C1=C[C@@H](OC(CC)CC)[C@H](NC(C)=O)[C@@H](N)C1 [Oseltamivir Phosphate]
[1]; [6]
  Quadrant (FIG. 5b): Q4
[2]; [7]
  LPS % cell toxicity: 0%
[3]; [8]
  LPS % inhibition: 13%
[4]; [9]
  Fibrin % inhibition: −7%
[5]; [10]
  Fibrin % cell toxicity: 1%

## CCC[C@@H]1C[C@@H](C(=O)N[C@@H]([C@H]2O[C@H](SC)[C@H](O)[C@@H](O)[C@H]2O)[C@@H](C)O)N(C)C1 [Lincomycin]
[1]; [6]
  Quadrant (FIG. 5b): Q4
[2]; [13]
  LPS % cell toxicity: 0%
[3]; primary microglia HTS, LPS stimulation, activation = cell size >800 μm2
  LPS % inhibition: −5%
[4]; primary microglia HTS, fibrin stimulation, activation = cell size >800 μm2
  Fibrin % inhibition: −29%
[5]; [16]
  Fibrin % cell toxicity: 1%

## CC(CCc1ccccc1)NC(C)C(O)c1ccc(O)cc1 (stereo not shown) [Nylidrin hydrochloride, reference compound]
[1]; Table 2, screen at 10 μM
  Quadrant (FIG. 5b): Q4
[1]; Table 7, fib = fibrin, LPS, tox = toxicity
  Activity: fib/LPS
[1]; [6]
  Quadrant (FIG. 5b): Q4
[2]; [7]
  LPS % cell toxicity: 1%
[3]; [11]
  inhibition at 10 µM: 24%
[3]; Rattus norvegicus, Microglia, Table 7, read-out: LPS_IC50
  IC50: 7 nM
[4]; Rattus norvegicus, Microglia, Table 7, read-out: fib_IC50
  IC50: 2 nM
[4]; [12]
  inhibition at 10 µM: 6%
[5]; [10]
  Fibrin % cell toxicity: 0%

## CO/N=C1\C[C@]2(C[C@@H]3C[C@@H](C/C=C(\C)C[C@@H](C)/C=C/C=C4\CO[C@@H]5[C@H](O)C(C)=C[C@@H](C(=O)O3)[C@]45O)O2)O[C@H](/C(C)=C/C(C)C)[C@H]1C [Moxidectin]
[1]; [6]
  Quadrant (FIG. 5b): Q4
[2]; [7]
  LPS % cell toxicity: 1%
[3]; [11]
  inhibition at 10 µM: 14%
[4]; [12]
  inhibition at 10 µM: 1%
[5]; [10]
  Fibrin % cell toxicity: 0%

## CC1=C(C(=O)O)N2C(=O)[C@@H](NC(=O)[C@H](N)C3=CCC=CC3)[C@H]2SC1 [Cephradine]
[1]; primary HTS, 10 μM
  Quadrant (FIG. 5b): Q4
[2]; [17]
  LPS % cell toxicity: 0%
[3]; [18]
  inhibition at 10 µM: -1%
[4]; [19]
  inhibition at 10 µM: -26%
[5]; [20]
  Fibrin % cell toxicity: 0%

## CCCC(C)(COC(N)=O)COC(=O)NC(C)C (stereo not shown) [Carisoprodol]
[1]; primary HTS, 10 μM
  Quadrant (FIG. 5b): Q4
[2]; [17]
  LPS % cell toxicity: 0%
[3]; [18]
  inhibition at 10 µM: -1%
[4]; [19]
  inhibition at 10 µM: 1%
[5]; [20]
  Fibrin % cell toxicity: 0%
